In ChEMBL document CHEMBL1201862, “PubChem BioAssay data set” (2004):
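Step 1: Grow cells in 96-well plates. Step 2: Expose to compound for 48 hours at 5 concentrations. Step 3: Interpolate endpoints linearly; if unreached, use highest concentration. The concentration for 50% growth inhibition is given as GI50.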 Calls of active or inactive are those of the source. Rule as the data show it: active = GI50 up to about 1.1 µM and inactive = higher.

What was measured:
Assay in all cases: growth of human tumour cells (NCI), 48 h
DLD-1 = test system: DLD-1
DMS-114 = test system: DMS-114
DMS-273 = test system: DMS-273
HOP-18 = test system: HOP-18
KM-20L2 = test system: KM-20L2
M19-MEL = test system: M19-MEL
XF498 = test system: XF498
RXF 631 = test system: RXF 631

Measured: GI50

Cc1cc(C)n(-c2ccnc3cc(Cl)ccc23)n1
inactive: DLD-1 > 100 µM | DMS-114 > 100 µM | DMS-273 > 100 µM | HOP-18 > 100 µM | KM-20L2 > 100 µM | M19-MEL > 100 µM | XF498 > 100 µM

COC1(OC)CC2C(=O)N(Cc3ccccc3)C1CC2S(=O)(=O)c1ccccc1 (centres undefined)
inactive: DLD-1 > 100 µM | DMS-114 > 100 µM | DMS-273 > 100 µM | HOP-18 > 100 µM | M19-MEL > 100 µM | XF498 33.4 µM

Cc1ccc(NC(=S)SCCC(=O)O)cc1
inactive: DMS-114 > 100 µM | DMS-273 > 100 µM | KM-20L2 > 100 µM | RXF 631 > 100 µM

O=C(NCCNCCO)N/N=C/c1ccccc1
inactive: DLD-1 > 100 µM | DMS-114 > 100 µM | DMS-273 > 100 µM | HOP-18 > 100 µM | XF498 > 100 µM

CCC12C=CCN3CCC4(c5cc(C6(C(=O)OC)CCCCCc7c6[nH]c6ccccc76)c(OC)cc5N(C)C4C(O)(C(=O)OC)C1OC(C)=O)C32 (centres undefined)
inactive: DMS-114 2.38 µM | HOP-18 2.34 µM | KM-20L2 2.03 µM | M19-MEL 2.51 µM | XF498 2.33 µM

CCOC(=O)C(Cc1c[nH]c2cc([N+](=O)[O-])ccc12)NS(=O)(=O)c1ccc2ccccc2c1 (centres undefined)
inactive: DLD-1 23.7 µM | DMS-114 19.7 µM | DMS-273 17.5 µM | HOP-18 29.5 µM | KM-20L2 19 µM | M19-MEL 17.2 µM | XF498 17.3 µM

CO[C@@]12CC(=O)/C(=C(O)\C=C\c3ccccc3)C(=O)[C@]1(OC)Cc1ccccc1O2
inactive: DLD-1 32.2 µM | DMS-114 44.8 µM | HOP-18 35.6 µM | KM-20L2 22.4 µM | M19-MEL 37.5 µM | RXF 631 30.3 µM | XF498 43 µM

Cn1cc(NC(=O)c2cc(NC(=O)CCCCCCCCC(=O)Nc3cc(C(=O)Nc4cc(C(=O)NCCC(N)N)n(C)c4)n(C)c3)cn2C)cc1C(=O)NCCC(=N)N
inactive: DLD-1 25.5 µM | DMS-273 17.1 µM | HOP-18 25.9 µM | KM-20L2 19.7 µM | M19-MEL 16.6 µM | RXF 631 26.9 µM | XF498 28.6 µM

Cc1cccc(NC(=O)C(=O)C(C(=O)c2ccc3ccccc3c2)C2OC(=O)c3ccccc32)c1C (centres undefined)
inactive: DLD-1 14.8 µM | DMS-114 7.67 µM | DMS-273 13.8 µM | KM-20L2 33 µM | M19-MEL 9.91 µM | RXF 631 7.19 µM | XF498 1.56 µM

O=c1cccccc1NCCNc1cccccc1=O
inactive: DLD-1 > 10 µM | DMS-114 > 100 µM | DMS-273 > 100 µM | KM-20L2 > 100 µM | M19-MEL > 100 µM | RXF 631 > 100 µM | XF498 > 100 µM

CCOC(=O)NC(=O)c1cn(C2OC(COC(=O)CCCCCCCCC(=O)OCC3OC(n4cc(C(=O)NC(=O)OCC)c(=O)[nH]c4=O)C4OC(C)(C)OC34)C3OC(C)(C)OC32)c(=O)[nH]c1=O (centres undefined)
inactive: DLD-1 > 100 µM | DMS-114 93.1 µM | DMS-273 60.1 µM | HOP-18 > 100 µM | KM-20L2 67.6 µM | M19-MEL 26.9 µM | RXF 631 > 100 µM | XF498 67.1 µM

O=C(O)C1C2CCC(O2)C1C(=O)N1CCCCC1 (centres undefined)
inactive: DLD-1 15.6 µM | DMS-114 2 µM | DMS-273 10.6 µM | HOP-18 12.9 µM | KM-20L2 2.65 µM | M19-MEL 9.1 µM | RXF 631 17.4 µM

COc1cc2ccc3c4cc(OC)c(OC(C)C)cc4cnc3c2cc1OC
inactive: DLD-1 > 100 µM | DMS-114 > 100 µM | HOP-18 > 100 µM | KM-20L2 > 100 µM | M19-MEL > 100 µM | RXF 631 > 100 µM

CCOC(=O)NC(=O)c1cn(CCOC(=O)CCCCCCCCC(=O)OCCn2cc(C(=O)NC(=O)OCC)c(=O)[nH]c2=O)c(=O)[nH]c1=O
inactive: DLD-1 > 100 µM | DMS-114 > 100 µM | DMS-273 > 100 µM | HOP-18 > 100 µM | KM-20L2 > 100 µM | M19-MEL > 100 µM | RXF 631 > 100 µM | XF498 > 100 µM

COC(=O)C1=C(C)N(NC(=O)c2cccc(Cl)c2)C(C)(O)C12CCOC2=O (centres undefined)
inactive: DMS-114 > 100 µM | DMS-273 > 100 µM | KM-20L2 > 100 µM | M19-MEL > 100 µM | RXF 631 > 100 µM | XF498 > 100 µM

Cc1cccc(Cl)c1NC(=O)c1cccc([N+](=O)[O-])c1O
inactive: DLD-1 31.7 µM | DMS-114 25.8 µM | DMS-273 37.2 µM | HOP-18 28.5 µM | KM-20L2 41.4 µM | RXF 631 36.7 µM | XF498 32.2 µM
